System: female mice (C57/BL6) with streptozocin-induced hyperglycemia
Experiment: AAV1.CMV.insulin.RSV.icasp9 and AP20187 in streptozocin-treated C57/BL6 mice, blood glucose
Type: in vivo
Details: IP 10 mg/kg, five consecutive days starting on day 14 after AAV1.CMV.insulin.RSV.icasp9 (FIG. 6)
Experimental: FIG. 6 is a graph plotting glucose levels for three groups of mice. One group was treated intraperitoneally (IP) with streptozocin (STZ) for two weeks to develop hyperglycemia. A second group was treated intraperitoneally (IP) with streptozocin (STZ) for two weeks to develop hyperglycemia and then administered AAV1.CMV.insulin.RSV.icasp9 (AAV1) intramuscularly (IM) on day zero. The third group was treated intraperitoneally (IP) with streptozocin (STZ) for two weeks to develop hyperglycemia, was then administered AAV1.CMV.insulin.RSV.icasp9 (AAV1) intramuscularly (IM) on day zero followed by intraperitoneal (IP) administration of AP20187 (B/B) on days 14, 15, 16, 17, and 18.
To induce diabetes in mice, three groups of female mice (C57/BL6) were given, on 5 consecutive days, an intraperitoneal (IP) injection of Streptozocin (STZ; Sigma cat #50130) at 45 mg/kg body weight dissolved in 0.1 mol/L citrate buffer (pH 4.5) immediately before administration. Two weeks later, when hyperglycemia developed, two groups of mice were injected intramuscularly (IM) with 1×10E11 particles/mice of AAV1.CMV.insulin.RSV.icasp9. Blood glucose levels were determined using a Contour blood glucose test strips (Bayer HealthCare LLC). 14 days later, one group of mice was injected via IP injection with 10 mg/kg of AP20187 (B/B homodimerizer; Clontech, Cat. No. AP20187) for 5 consecutive days.

CC[C@H](C(=O)N1CCCCC1C(=O)O[C@H](CCc1ccc(OC)c(OC)c1)c1cccc(OCC(=O)NCC(CNC(=O)COc2cccc([C@@H](CCc3ccc(OC)c(OC)c3)OC(=O)[C@@H]3CCCCN3C(=O)[C@@H](CC)c3cc(OC)c(OC)c(OC)c3)c2)CN(C)C)c1)c1cc(OC)c(OC)c(OC)c1 (stereo partly shown) [AP20187]
glucose levels after induction of the iCasp9 death switch: steady increase in glucose levels
